These results are taken from patent US8278290B2, “Tubulin polymerisation inhibitors” (Biononics Limited, priority 2005, dated 2012).

Test [1] deals with Human umbilical vein endothelial cells. In words: Proliferation Assay - activated endothelium (MTT). In kind it is cell-based. The following applies: HUVEC, range within which the IC50 value falls, 48 hrs culture, read-out: Inhib activated HUVECs IC50. The procedure:
Proliferation Assay—activated endothelium: Human umbilical vein endothelial cells (CC-2519, Clonetics) were plated at 2500 cells/well in EGM2 (CC-3162, Clonetics) in a 96 well plate in triplicate. Cells were cultured overnight at 37° C. 5% CO2. Medium was subsequently replaced with fresh medium including the compound or negative control. Cells were cultured for a period of 48 hrs. An MTT assay was performed to measure changes in cell numbers. Briefly, 20 μl of MTT reagent was added to cells containing 100 μl of EGM2 and incubated at 37° C. for 2 hours. Absorbance was measured at 492 nm.

Test [2] has as its system MCF-7, cancer cell line. As to the kind of experiment: MCF-7 growth inhibition (SRB or Sysmex cell counting). The settings on record: SRB or CC assay. In kind it is cell-based.
Where [3] appears, read: Homo sapiens, MCF7, concentration required to inhibit net cell growth by 50%.
[4] abbreviates: concentration required to inhibit net cell growth by 50%.

By IC50 is commonly meant the concentration needed to halve the response being measured.

Where “and” joins values, the source holds several entries; their conditions need not be identical. Equal entries are not always repeated. A value given as a limit tells only on which side of the number the result lay.

For `CCOC(=O)Cn1cc(-c2oc3cc(OC)ccc3c2C(=O)c2cc(OC)c(OC)c(OC)c2)cn1` [Entry 30, {4-[6-Methoxy-3-(3,4,5-trimethoxy-benzoyl)-benzofuran-2-yl]-pyrazol-1-yl}-acetic acid ethyl ester], the figures for the IC50 in test [1], in test [2] (setting [3]) and in test [2] (setting [4]) were 0.01 to 0.1 µM, 0.029 µM and 0.015 µM, respectively.
As to `COc1ccc2c(C(=O)c3cc(OC)c(OC)c(OC)c3)c(-c3cnn(Cc4ccccc4)c3)oc2c1` [Entry 17, [2-(1-Benzyl-1H-pyrazol-4-yl)-6-methoxy-benzofuran-3-yl]-(3,4,5-trimethoxyphenyl)-methanone], the values for the IC50 in test [1], in test [2] (setting [3]) and in test [2] (setting [4]) were 0.1 to 1 µM, 0.11 µM and 0.083 µM, respectively.
In the case of `COc1ccc2c(C(=O)c3cc(OC)c(OC)c(OC)c3)c(-c3cnn(CC(=O)O)c3)oc2c1` [Entry 29, Sodium {4-[6-Methoxy-3-(3,4,5-trimethoxy-benzoyl)-benzo[b]furan-2-yl]-pyrazol-1-yl}-acetate], the figures for the 50% inhibitory concentration (IC50) in test [1], in test [2] (setting [3]) and in test [2] (setting [4]) were 0.1 µM, 0.9 µM and 0.54 µM, respectively.
With `COc1cc(C(=O)c2c(-c3cnn(CC(N)=O)c3)oc3c(O)c(OC)ccc23)cc(OC)c1OC` [Entry 51, 2-{4-[7-Hydroxy-6-methoxy-3-(3,4,5-trimethoxybenzoyl)-benzofuran-2-yl]-pyrazol-1-yl}-acetamide], the IC50 in test [1] is 0.0001 to 0.001 µM.
For `COc1cc(C(=O)c2c(-n3ccnc3)oc3c(O)c(OC)ccc23)cc(OC)c1OC` [Entry 27, 2-(N-imidazolyl)-7-hydroxy-3-(3,4,5-trimethoxybenzoyl)-6-methoxy-benzo[b]furan], the IC50 in test [1] is 0.001 to 0.01 µM; in test [2] (setting [3]), 0.0016 µM; in test [2] (setting [4]) it was less than 0.001 µM.
In the case of `COc1ccc2c(C(=O)c3cc(OC)c(OC)c(OC)c3)c(-c3cnn(C)c3)[nH]c2c1` [Entry 19, [6-Methoxy-2-(1-methyl-1H-pyrazol-4-yl)-1H-indol-3-yl]-(3,4,5-trimethoxyphenyl)-methanone], the values for the IC50 in test [1] and in test [2] (setting [3]) were 0.01 to 0.1 µM and 0.012 µM, respectively.
With `COc1cc(C(=O)c2c(-c3cccs3)oc3c(O)c(OC)ccc23)cc(OC)c1OC` [Entry 28, 7-Hydroxy-2-(2-thiophenyl)-3-(3,4,5-trimethoxybenzoyl)-6-methoxy-benzo[b]furan], the IC50 in test [1] is 0.0001 to 0.001 µM; in test [2] (setting [3]), less than 0.001 µM.
Regarding `COc1ccc2c(C(=O)c3cc(OC)c(OC)c(OC)c3)c(-c3cn(C)cn3)oc2c1` [Entry 39, [2-(1-methyl-1H-Imidazol-4-yl)-6-methoxy-benzofuran-3-yl]-(3,4,5-trimethoxyphenyl)-methanone], the values for the IC50 in test [1], in test [2] (setting [3]) and in test [2] (setting [4]) were 0.01 to 0.1 µM, 0.04 µM and 0.035 µM, respectively.
`COc1cc(C(=O)c2c(-c3c(C)noc3C)oc3c(O)c(OC)ccc23)cc(OC)c1OC` [Entry 25, 2-(3,5-dimethylisoxazol-4-yl)-7-hydroxy-3-(3,4,5-trimethoxy-benzoyl)-6-methoxybenzo[b]furan]: the IC50 in test [1] is 0.01 to 0.1 µM; in test [2] (setting [3]), 0.068 µM; in test [2] (setting [4]), 0.057 µM.
Consider `COc1cc(OC)cc(C(=O)c2c(-c3cnn(C)c3)oc3c(O)c(OC)ccc23)c1` [Entry 24, 2-(4-N-methylpyrazolyl)-3-(3,5-dimethoxybenzoyl)-6-methoxy-7-hydroxy-benzofuran], for which the IC50 was 0.001 to 0.01 µM in test [1], 0.0033 µM in test [2] (setting [3]) and 0.0044 µM in test [2] (setting [4]).
With `COc1ccc2c(C(=O)c3cc(OC)c(OC)c(OC)c3)c(-c3cnn(CCN(C)C)c3)oc2c1` [Entry 42, {2-[1-(2-Dimethylamino-ethyl)-1H-pyrazol-4-yl]-6-methoxy-benzofuran-3-yl}-(3,4,5-trimethoxyphenyl)-methanone], the IC50 was 0.1 to 1 µM in test [1], 0.3 µM in test [2] (setting [3]) and 0.31 µM in test [2] (setting [4]).
As to `COc1cc(C(=O)c2c(-c3cnn(C)c3)oc3c(OC(C)C)c(OC)ccc23)cc(OC)c1OC` [Entry 13], the values for the 50% inhibitory concentration (IC50) in test [2] (setting [3]) and in test [2] (setting [4]) were 0.048 µM and 0.035 µM, respectively.
In the case of `COc1cc(C(=O)c2c(-c3cnn(CC(C)C)c3)oc3c(O)c(OC)ccc23)cc(OC)c1OC` [Entry 26, 2-(4-N-isobutyl-pyrazolyl)-7-hydroxy-3-(3,4,5-trimethoxy-benzoyl)-6-methoxy-benzo[b]furan], the half-maximal inhibitory concentration (IC50) in test [1] was 0.001 to 0.01 µM; in test [2] (setting [3]), 0.021 µM; in test [2] (setting [4]), 0.014 µM.
Take `COc1cc(C(=O)c2c(-n3cccn3)oc3c(O)c(OC)ccc23)cc(OC)c1OC` [Entry 34, 2-(N-pyrazolyl)-7-hydroxy-3-(3,4,5-trimethoxybenzoyl)-6-methoxy-benzo[b]furan]: the IC50 was 0.1 to 1 µM in test [1], 0.0035 µM in test [2] (setting [3]) and 0.0024 µM in test [2] (setting [4]).
For `COc1cc(C(=O)c2c(-c3c[nH]nn3)oc3c(O)c(OC)ccc23)cc(OC)c1OC` [Entry 58, 17-Hydroxy-6-methoxy-2-(2H-[1,2,3]triazol-4-yl)-3-(3,4,5-trimethoxybenzoyl)benzo[b]furan], the IC50 in test [1] and in test [2] (setting [3]) was 0.001 to 0.01 µM throughout.
Take “2-Imidazol-1-yl-7-O-bis-(triethylammonium)phosphate-6-methoxy-3-(3,4,5-trimethoxybenzoyl)-benzo[b]furan [Entry 49]”: the IC50 in test [2] (setting [4]) is 0.0014 µM and 0.0022 µM.
As for `COc1cc(C(=O)c2c(-c3ccc(C=O)s3)oc3c(O)c(OC)ccc23)cc(OC)c1OC` [Entry 37, 2-(2-thiophene-5-carbaldehyde)-7-hydroxy-3-(3,4,5-trimethoxybenzoyl)-6-methoxy-benzo[b]furan], the IC50 is 0.001 to 0.01 µM in test [1], 0.0018 µM in test [2] (setting [3]) and 0.0023 µM in test [2] (setting [4]).
Take `COc1cc(C(=O)c2c(-c3cnn(Cc4ccccc4)c3)oc3c(O)c(OC)ccc23)cc(OC)c1OC` [Entry 15]: the IC50 in test [2] (setting [3]) amounted to 0.0041 µM; in test [2] (setting [4]), 0.0033 µM.
For `COc1ccc2c(/C(=N/Nc3ccc([N+](=O)[O-])cc3[N+](=O)[O-])c3cc(OC)c(OC)c(OC)c3)c(-c3cnn(C)c3)oc2c1` [Entry 56, (E/Z)-6-Methoxy-2-(1-methyl-1H-pyrazol-4-yl)-3-(3,4,5-trimethoxybenzoyl)benzo[b]furan 2,4-dinitrophenylhydrazone], the IC50 in test [1] is 0.1 to 1 µM; in test [2] (setting [3]) it was greater than 1 µM.
`COc1ccc2c(/C(=N/O)c3cc(OC)c(OC)c(OC)c3)c(-c3cnn(C)c3)oc2c1` [Entry 55, (E/Z)-6-methoxy-2-(1-methyl-1H-pyrazol-4-yl)-3-(3,4,5-trimethoxybenzoyl)benzo[b]furan oxime]: the half-maximal inhibitory concentration (IC50) in test [1] and in test [2] (setting [3]) was 0.1 to 1 µM in each case.
Consider `COc1cc(C(=O)c2coc3c(OP(=O)(O)O)c(OC)ccc23)cc(OC)c1OC` [Entry 9, reference compound], for which the figures for the concentration for half-maximal inhibition (IC50) in test [2] (setting [3]) and in test [2] (setting [4]) were 0.041 µM and 0.082 µM, respectively.
For the compound `COc1cc(C(=O)c2c(-c3cnn(CC(N)=O)c3)oc3c(F)c(OC)ccc23)cc(OC)c1OC` [Entry 53, 2-{4-[7-Fluoro-6-methoxy-3-(3,4,5-trimethoxybenzoyl)benzofuran-2-yl]-1H-pyrazol-1-yl}acetamide], the IC50 in test [1] was 0.0001 to 0.001 µM; in test [2] (setting [3]), 0.0078 µM; in test [2] (setting [4]) it was 0.0081 µM.
Regarding `COc1ccc(/C=C\c2cc(OC)c(OC)c(OC)c2)cc1O` [Entry 1, reference compound], the IC50 in test [1] lay within 0.001 to 0.01 µM.
For `COc1ccc2c(C(=O)c3cc(OC)c(OC)c(OC)c3)c(-c3cn[nH]c3)oc2c1` [Entry 32, 6-Methoxy-2-(1H-pyrazol-4-yl)-3-(3,4,5-trimethoxybenzoyl)benzo[b]furan], the IC50 in test [1] is 0.001 to 0.01 µM; in test [2] (setting [3]), 0.0036 µM; in test [2] (setting [4]), 0.004 µM.
In the case of `COc1cc(C(=O)c2c(-c3ccco3)oc3c(OP(=O)(O)O)c(OC)ccc23)cc(OC)c1OC` [Entry 47, 7-(O-disodiumphosphate)-2-(2-furyl)-6-methoxy-3-(3,4,5-trimethoxybenzoyl)benzo-[b]furan], the figures for the IC50 in test [2] (setting [3]) and in test [2] (setting [4]) were 0.00026 µM and 0.00031 µM, respectively.
As to `COc1cc(C(=O)c2c(-n3cccc3)oc3c(O)c(OC)ccc23)cc(OC)c1OC` [Entry 38, 2-(1-pyrolyl)-7-hydroxy-3-(3,4,5-trimethoxybenzoyl)-6-methoxy-benzo[b]furan], the IC50 was 0.001 to 0.01 µM in test [1], 0.0014 µM in test [2] (setting [3]) and 0.0021 µM in test [2] (setting [4]).
With `COc1cc(C(=O)c2c(-c3cnn(C)c3)oc3c(F)c(OC)ccc23)cc(OC)c1OC` [Entry 41], the results for the IC50 in test [1], in test [2] (setting [3]) and in test [2] (setting [4]) were 0.001 to 0.01 µM, 0.0042 µM and 0.0036 µM, respectively.
`COc1cc(Sc2c(-c3cnn(C)c3)oc3c(N)c(OC)ccc23)cc(OC)c1OC` [Entry 54, 7-Amino-6-methoxy-2-(1-methyl-1H-pyrazol-4-yl)-3-(3,4,5-trimethoxyphenylthio)benzo[b]furan]: the IC50 in test [1] lay in the range of 0.001 to 0.01 µM; in test [2] (setting [3]), 0.0001 to 0.001 µM.
`COc1cc(C(=O)c2c(-c3nccs3)oc3c(OP(=O)(O)O)c(OC)ccc23)cc(OC)c1OC` [Entry 48, 2-(2-Thiazolyl)-7-O-disodiumphosphate-6-methoxy-3-(3,4,5-trimethoxybenzoyl)-benzo[b]furan]: the IC50 was 0.00053 µM in test [2] (setting [3]) and 0.0004 µM in test [2] (setting [4]).
As for `COc1cc(C(=O)c2c(-n3ccnn3)oc3c(O)c(OC)ccc23)cc(OC)c1OC` [Entry 35, 2-(1N-1,2,3-triazolyl)-7-hydroxy-3-(3,4,5-trimethoxybenzoyl)-6-methoxy-benzo[b]furan], in test [1], the IC50 is 0.001 to 0.01 µM.
Consider `COc1ccc(-c2oc3c(OP(=O)(O)O)c(OC)ccc3c2C(=O)c2cc(OC)c(OC)c(OC)c2)cc1` [Entry 8, reference compound], for which the IC50 in test [2] (setting [3]) was 0.0036 µM; in test [2] (setting [4]) it was 0.0042 µM and 0.006 µM and 0.0047 µM.
As for `COc1cc(C(=O)c2c(-c3cnn(C)c3)oc3c(O)c(OC)ccc23)cc(OC)c1O` [Entry 22], the IC50 in test [2] (setting [3]) stood at 0.025 µM; in test [2] (setting [4]), 0.029 µM.
